# Results: PMC11233931, “Remodeling tumor‐associated macrophage for anti‐cancer effects by rational design of irreversible inhibition of mitogen‐activated protein kinase‐activated protein kinase 2” (MedComm, 2024)
# Tests used:
# Test in all cases: Eurofins kinase selectivity profile against 380 other human recombinant kinases (Table S2)
# Format in all cases: biochemical
# [1] = molecular target: T1, 380 human recombinant protein kinases (Homo sapiens, UniProt O75747); details: PI3KC2γ(h), read-out: Inhibition rate (%)
# T1 construct: purchased Eurofins (Celle Lévescault)
# T1 sequence (O75747 1-1486): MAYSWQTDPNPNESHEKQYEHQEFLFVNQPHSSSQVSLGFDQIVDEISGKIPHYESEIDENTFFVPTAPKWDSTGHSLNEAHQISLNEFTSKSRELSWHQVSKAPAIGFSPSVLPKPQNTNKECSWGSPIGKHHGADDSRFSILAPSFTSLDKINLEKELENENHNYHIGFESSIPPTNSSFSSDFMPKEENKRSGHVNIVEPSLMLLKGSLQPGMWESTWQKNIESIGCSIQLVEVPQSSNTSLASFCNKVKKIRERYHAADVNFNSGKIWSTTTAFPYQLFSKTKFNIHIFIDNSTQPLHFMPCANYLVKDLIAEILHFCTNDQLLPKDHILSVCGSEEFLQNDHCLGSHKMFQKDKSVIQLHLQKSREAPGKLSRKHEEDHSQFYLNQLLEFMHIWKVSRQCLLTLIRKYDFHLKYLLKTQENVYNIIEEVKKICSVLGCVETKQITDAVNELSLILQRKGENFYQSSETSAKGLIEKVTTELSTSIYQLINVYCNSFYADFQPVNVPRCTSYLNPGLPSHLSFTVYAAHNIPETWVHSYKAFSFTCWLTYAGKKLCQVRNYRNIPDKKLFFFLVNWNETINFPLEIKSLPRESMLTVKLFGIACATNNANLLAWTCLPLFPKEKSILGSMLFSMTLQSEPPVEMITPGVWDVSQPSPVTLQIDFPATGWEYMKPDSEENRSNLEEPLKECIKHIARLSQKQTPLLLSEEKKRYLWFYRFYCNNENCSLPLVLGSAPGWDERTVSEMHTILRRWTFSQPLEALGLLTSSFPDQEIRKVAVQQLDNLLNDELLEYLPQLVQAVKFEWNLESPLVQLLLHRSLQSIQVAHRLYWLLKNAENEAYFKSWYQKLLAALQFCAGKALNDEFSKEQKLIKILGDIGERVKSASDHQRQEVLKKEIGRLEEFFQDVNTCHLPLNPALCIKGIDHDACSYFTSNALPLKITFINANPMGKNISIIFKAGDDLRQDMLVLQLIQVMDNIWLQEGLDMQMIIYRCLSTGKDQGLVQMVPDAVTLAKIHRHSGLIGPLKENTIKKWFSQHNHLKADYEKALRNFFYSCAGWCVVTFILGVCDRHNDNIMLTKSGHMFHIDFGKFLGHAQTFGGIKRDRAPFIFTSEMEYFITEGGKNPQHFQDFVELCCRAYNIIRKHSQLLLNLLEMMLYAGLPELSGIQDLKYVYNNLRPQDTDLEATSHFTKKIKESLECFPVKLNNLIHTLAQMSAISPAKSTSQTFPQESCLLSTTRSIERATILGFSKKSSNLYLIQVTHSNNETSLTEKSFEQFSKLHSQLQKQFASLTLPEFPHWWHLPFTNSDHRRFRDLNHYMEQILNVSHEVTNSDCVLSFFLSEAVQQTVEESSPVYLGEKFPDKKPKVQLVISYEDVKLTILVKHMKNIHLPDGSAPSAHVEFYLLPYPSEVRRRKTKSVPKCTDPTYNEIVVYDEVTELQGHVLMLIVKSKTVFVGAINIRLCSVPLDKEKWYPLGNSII
# Method in brief: (§1)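 Profiling against 380 human recombinant kinases carried out by Eurofins at various compound concentrations.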
# [2] = molecular target: T2, 380 human recombinant protein kinases (Homo sapiens, UniProt P48729); details: CK1α(h), read-out: Inhibition rate
# T2 construct: purchased Eurofins (Celle Lévescault)
# T2 sequence (P48729 whole entry): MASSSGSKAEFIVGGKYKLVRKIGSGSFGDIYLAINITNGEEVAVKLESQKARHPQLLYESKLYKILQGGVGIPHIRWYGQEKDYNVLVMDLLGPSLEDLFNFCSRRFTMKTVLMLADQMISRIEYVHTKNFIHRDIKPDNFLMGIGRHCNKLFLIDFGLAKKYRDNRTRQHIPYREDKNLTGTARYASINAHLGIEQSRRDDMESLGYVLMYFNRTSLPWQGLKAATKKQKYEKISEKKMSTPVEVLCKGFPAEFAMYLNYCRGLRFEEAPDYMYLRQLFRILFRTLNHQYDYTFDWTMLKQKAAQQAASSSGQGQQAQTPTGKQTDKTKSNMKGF
# Method in brief: as §1
# [3] = molecular target: T3, 380 human recombinant protein kinases (Homo sapiens, UniProt Q16584); details: MLK3(h), read-out: Inhibition rate
# T3 construct: purchased Eurofins (Celle Lévescault)
# T3 sequence (Q16584 whole entry): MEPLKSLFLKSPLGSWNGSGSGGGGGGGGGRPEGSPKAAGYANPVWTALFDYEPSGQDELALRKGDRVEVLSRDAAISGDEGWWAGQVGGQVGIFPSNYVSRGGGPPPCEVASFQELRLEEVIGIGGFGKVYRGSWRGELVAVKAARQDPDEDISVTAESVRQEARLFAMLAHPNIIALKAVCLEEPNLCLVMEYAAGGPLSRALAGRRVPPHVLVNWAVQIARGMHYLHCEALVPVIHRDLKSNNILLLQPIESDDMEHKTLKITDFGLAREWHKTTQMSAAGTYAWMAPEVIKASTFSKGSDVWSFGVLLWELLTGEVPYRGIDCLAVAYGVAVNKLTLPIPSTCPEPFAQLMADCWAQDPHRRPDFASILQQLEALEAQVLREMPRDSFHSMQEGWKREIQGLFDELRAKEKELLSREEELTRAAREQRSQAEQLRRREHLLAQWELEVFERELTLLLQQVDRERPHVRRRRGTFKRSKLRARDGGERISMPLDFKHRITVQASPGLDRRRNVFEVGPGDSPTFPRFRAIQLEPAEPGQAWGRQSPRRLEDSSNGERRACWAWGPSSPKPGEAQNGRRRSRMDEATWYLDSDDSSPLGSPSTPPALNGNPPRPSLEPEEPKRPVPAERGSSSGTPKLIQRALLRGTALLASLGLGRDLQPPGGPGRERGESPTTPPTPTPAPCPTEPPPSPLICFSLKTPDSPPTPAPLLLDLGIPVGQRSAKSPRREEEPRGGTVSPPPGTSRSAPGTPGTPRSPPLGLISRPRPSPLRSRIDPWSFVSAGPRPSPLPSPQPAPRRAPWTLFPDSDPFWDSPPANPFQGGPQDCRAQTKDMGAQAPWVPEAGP
# Method in brief: as §1
# [4] = molecular target: T4, 380 human recombinant protein kinases (Homo sapiens, UniProt Q92918); details: HPK1(h), read-out: Inhibition rate
# T4 construct: purchased Eurofins (Celle Lévescault)
# T4 sequence (Q92918 whole entry): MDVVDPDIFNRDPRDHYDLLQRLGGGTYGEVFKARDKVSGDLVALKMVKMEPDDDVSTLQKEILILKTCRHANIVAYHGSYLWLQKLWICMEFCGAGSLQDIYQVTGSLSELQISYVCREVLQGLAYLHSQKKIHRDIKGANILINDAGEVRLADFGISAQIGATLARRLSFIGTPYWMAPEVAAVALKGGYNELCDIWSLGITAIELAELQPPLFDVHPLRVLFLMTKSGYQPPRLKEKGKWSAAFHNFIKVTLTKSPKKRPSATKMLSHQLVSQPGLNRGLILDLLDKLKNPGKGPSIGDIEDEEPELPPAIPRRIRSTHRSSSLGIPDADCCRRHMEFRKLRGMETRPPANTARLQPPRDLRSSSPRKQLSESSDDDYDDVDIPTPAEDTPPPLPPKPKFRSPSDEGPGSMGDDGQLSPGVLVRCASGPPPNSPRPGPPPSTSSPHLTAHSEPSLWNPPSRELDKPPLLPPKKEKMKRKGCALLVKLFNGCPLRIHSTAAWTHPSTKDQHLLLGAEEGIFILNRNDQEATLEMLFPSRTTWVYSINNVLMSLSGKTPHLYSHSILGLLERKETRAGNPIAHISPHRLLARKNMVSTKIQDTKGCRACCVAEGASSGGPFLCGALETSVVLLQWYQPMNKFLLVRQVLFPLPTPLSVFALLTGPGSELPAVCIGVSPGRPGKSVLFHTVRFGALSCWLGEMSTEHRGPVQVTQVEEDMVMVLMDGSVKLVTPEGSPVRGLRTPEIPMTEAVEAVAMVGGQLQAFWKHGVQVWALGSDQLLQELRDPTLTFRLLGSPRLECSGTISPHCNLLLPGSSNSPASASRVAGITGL
# Method in brief: as §1
# [5] = molecular target: T5, 380 human recombinant protein kinases (Homo sapiens, UniProt P34947); details: GRK5(h), read-out: Inhibition rate
# T5 construct: purchased Eurofins (Celle Lévescault)
# T5 sequence (P34947 whole entry): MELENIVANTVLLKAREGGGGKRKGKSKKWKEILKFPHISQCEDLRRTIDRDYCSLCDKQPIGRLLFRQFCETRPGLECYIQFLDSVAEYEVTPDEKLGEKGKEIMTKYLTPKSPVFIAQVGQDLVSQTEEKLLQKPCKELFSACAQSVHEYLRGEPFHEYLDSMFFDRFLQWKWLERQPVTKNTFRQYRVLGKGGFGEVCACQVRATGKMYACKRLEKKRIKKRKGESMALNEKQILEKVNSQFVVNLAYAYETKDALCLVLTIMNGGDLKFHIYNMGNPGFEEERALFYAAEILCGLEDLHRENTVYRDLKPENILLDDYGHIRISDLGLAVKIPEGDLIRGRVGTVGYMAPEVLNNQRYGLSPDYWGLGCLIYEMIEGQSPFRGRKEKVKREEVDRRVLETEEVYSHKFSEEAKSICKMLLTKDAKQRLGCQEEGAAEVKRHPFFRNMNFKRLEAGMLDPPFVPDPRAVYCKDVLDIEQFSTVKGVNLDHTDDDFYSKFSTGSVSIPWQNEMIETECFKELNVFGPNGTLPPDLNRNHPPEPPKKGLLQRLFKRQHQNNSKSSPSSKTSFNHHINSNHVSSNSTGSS
# Method in brief: as §1
# [6] = molecular target: T6, 380 human recombinant protein kinases (Homo sapiens, UniProt P36897); details: TGFBR1(h), read-out: Inhibition rate (%)
# T6 construct: purchased Eurofins (Celle Lévescault)
# T6 sequence (P36897 34-503): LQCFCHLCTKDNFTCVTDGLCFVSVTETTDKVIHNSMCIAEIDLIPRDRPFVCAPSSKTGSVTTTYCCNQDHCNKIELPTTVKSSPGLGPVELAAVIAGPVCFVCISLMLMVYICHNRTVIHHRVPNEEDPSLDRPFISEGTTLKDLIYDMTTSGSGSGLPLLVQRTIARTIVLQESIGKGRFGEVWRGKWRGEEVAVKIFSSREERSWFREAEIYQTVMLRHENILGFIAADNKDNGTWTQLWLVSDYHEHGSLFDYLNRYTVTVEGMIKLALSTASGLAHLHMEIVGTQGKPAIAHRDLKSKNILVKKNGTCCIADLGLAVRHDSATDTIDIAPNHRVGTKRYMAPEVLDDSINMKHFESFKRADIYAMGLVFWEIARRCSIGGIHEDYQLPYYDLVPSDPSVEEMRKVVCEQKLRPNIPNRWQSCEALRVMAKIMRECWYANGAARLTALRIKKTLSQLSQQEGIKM
# Method in brief: as §1
# [7] = molecular target: T7, 380 human recombinant protein kinases (Homo sapiens, UniProt P49841); details: GSK3β(h), read-out: Inhibition rate
# T7 construct: purchased Eurofins (Celle Lévescault)
# T7 sequence (P49841 whole entry): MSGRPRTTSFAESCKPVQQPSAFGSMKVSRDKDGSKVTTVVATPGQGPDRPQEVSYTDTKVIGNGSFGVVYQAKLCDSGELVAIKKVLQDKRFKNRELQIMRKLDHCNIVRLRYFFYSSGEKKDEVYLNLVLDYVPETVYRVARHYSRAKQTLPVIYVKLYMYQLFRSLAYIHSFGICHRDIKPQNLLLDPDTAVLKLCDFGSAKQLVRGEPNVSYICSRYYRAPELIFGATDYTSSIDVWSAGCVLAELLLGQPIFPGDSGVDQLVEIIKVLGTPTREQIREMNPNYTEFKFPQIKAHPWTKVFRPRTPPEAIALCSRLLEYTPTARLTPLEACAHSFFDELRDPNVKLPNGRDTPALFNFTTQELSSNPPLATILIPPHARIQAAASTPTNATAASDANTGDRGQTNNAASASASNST
# Method in brief: as §1
structure (smiles),measurement,setting,value
C=CC(=O)Nc1cc(-c2cc(-c3cc4c([nH]3)CCNC4=O)ccn2)ccc1OC(F)(F)F [compound 11],inhibition at 0.01 µM,[1]; 10 nM,6%
same,inhibition at 0.1 µM,[1]; 100 nM,13%
same,inhibition at 1 µM,[1]; 1000 nM,12%
same,inhibition at 0.01 µM,[2]; 10 nM,15%
same,inhibition at 0.1 µM,[2]; 100 nM,30%
same,inhibition at 1 µM,[2]; 1000 nM,70%
same,inhibition at 0.01 µM,[3]; 10 nM,-2%
same,inhibition at 0.1 µM,[3]; 100 nM,8%
same,inhibition at 1 µM,[3]; 1000 nM,43%
same,inhibition at 0.01 µM,[4]; 10 nM,-8%
same,inhibition at 0.1 µM,[4]; 100 nM,-15%
same,inhibition at 1 µM,[4]; 1000 nM,1%
same,inhibition at 0.01 µM,[5]; 10 nM,-6%
same,inhibition at 0.1 µM,[5]; 100 nM,-2%
same,inhibition at 1 µM,[5]; 1000 nM,0%
same,inhibition at 0.01 µM,[6]; 10 nM,-7%
same,inhibition at 0.1 µM,[6]; 100 nM,-2%
same,inhibition at 1 µM,[6]; 1000 nM,-4%
same,inhibition at 0.01 µM,[7]; 10 nM,-10%
same,inhibition at 0.1 µM,[7]; 100 nM,-7%
same,inhibition at 1 µM,[7]; 1000 nM,5%
